Laboratory results reported in patent US20150258062A1, “COMPOSITIONS AND METHODS FOR TREATMENT OF RENAL DISEASE” (priority 2009, published 2015).

What was measured:
[1] = test system: non-diabetic patients already receiving dual therapy with both an ACEI plus an ARB agent; settings: after 1 year; non-diabetic patients on ACEI plus ARB; independent of BP changes; cited from earlier work
[2] = test system: ventricular repolarization, QT interval and Torsade; settings: cited from earlier work
[3] = test system: Outward potassium current; settings: Table 1; cited from earlier work
[4] = Clinic case studies: serum laboratory profile (uric acid, potassium, creatinine, urea nitrogen); assay type: in vivo, human
[5] = Clinic case studies: blood pressure, pulse, body weight, edema, GFR, EKG; assay type: in vivo, human
Inward sodium current = settings: Table 1; cited from earlier work
Inward Calcium current = settings: Table 1; cited from earlier work
[6] = test system: slow component of the delayed rectifier K+ current (IKs); settings: cited from earlier work

uric acid ([4]; Case 1, Day 25, indapamide 2.5 mg with losartan 50 mg, terazosin 2 mg) | creatinine ([4]; Case 1, Day 25, indapamide 2.5 mg with losartan 50 mg, terazosin 2 mg, Day 0 value 2.3) | urea nitrogen ([4]; Case 1, Day 25, indapamide 2.5 mg with losartan 50 mg, terazosin 2 mg, Day 0 value 46) | serum uric acid ([4]; Case 4, indapamide 1.25 mg per day with losartan, amlodipine, after 9 months, baseline 7.5) | serum potassium ([4]; Example 3 Case 1, stage 4 CKD, Day 25, on indapamide 2.5 mg, losartan 50 mg, terazosin 2 mg since Day 13, Day 0 value 5.2) | serum creatinine and urea nitrogen ([4]; Example 3 Case 4, diabetic nephropathy, losartan 100 mg, amlodipine 5 mg, indapamide 1.25 mg per day, after 9 months) | SMILES | additive reduction of proteinuria [1] | QT dispersion ([2]; Table 1) | QT interval ([2]; Table 1) | Torsade ([2]; Table 1) | QT interval and torsade de pointes in patients ([2]; in the presence of normal electrolytes (Letsas, Alexanian et al. 2006)) | action on outward potassium current [3] | pedal edema ([5]; Case 1, Day 34, indapamide 2.5 mg with losartan 50 mg, terazosin 2 mg, before spironolactone) | blood pressure ([5]; Case 1, Day 34, indapamide 2.5 mg with losartan, terazosin, Day 13 value 142/82) | blood pressure ([5]; Example 3 Case 2, diabetic nephropathy, 6 months, 1 month after indapamide 1.25 mg, diltiazem 300 mg started and losartan raised to 100 mg, before 168/108) | action on inward sodium current (Inward sodium current) | action on inward calcium current (Inward Calcium current) | effect on IKs [6]
– | – | – | – | – | – | CC(=O)S[C@@H]1CC2=CC(=O)CC[C@]2(C)[C@H]2CC[C@@]3(C)[C@@H](CC[C@@]34CCC(=O)O4)[C@H]12 [spironolactone] | 58% | – | – | – | – | – | – | – | – | – | – | –
7.5 mg/dL | 2.6 mg/dL | 36 mg/dL | 7.0 mg/dL | 4.1 mmol/L | unchanged | CC1Cc2ccccc2N1NC(=O)c1ccc(Cl)c(S(N)(=O)=O)c1 (stereo not drawn) [indapamide, 4-chloro-N-(2-methyl-2,3-dihydroindol-1-yl)-3-sulfamoyl-benzamide] | – | increased | prolongs | prediposes | QT interval prolongation and torsade de pointes | Slows | decreased | 150/90 | 145/93 | No effect | No effect | blocks
– | – | – | – | – | – | C[C@]12CCC(=O)C=C1CC[C@@H]1[C@@H]2[C@@H](O)C[C@]2(C=O)[C@@H](C(=O)CO)CC[C@@H]12 [Aldosterone] | – | – | – | – | – | No effect | – | – | – | Incresases | Increases | –
